Measurements taken from PMC6627374, “Effects of the Pentapeptide P33 on Memory and Synaptic Plasticity in APP/PS1 Transgenic Mice: A Novel Mechanism Presenting the Protein Fe65 as a Target” (International Journal of Molecular Sciences, 2019).
“Also recorded” adds a separate entry of the source. Where a SMILES comes first, the peptide text is derived from it.

Columns and labels:
Fe65 = assay: Western blot, Fe65 level in brain; assay type: in vivo, mouse; conditions: APP/PS1 mice; 5 mg∙kg^−1 i.p., five days per week, six months; HC and CTX
Description: For this study, three-month-old male and female WT and APP/PS1 mice (n = 37) were used. Four groups were defined: WT-vehicle (physiological saline) (male n = 4; female n = 6), WT-P33 (male n = 6; female n = 5), APP/PS1-vehicle (male n = 3; female n = 5), and APP/PS1-P33 (male n = 6; female n = 2). Animals were subjected to intraperitoneal (i.p.) injections of P33 (5 mg∙kg^−1) for five days per week, over a course of six months. The mice were kept in groups under constant temperature (23 ± 0.5 °C), lighting (12-h/12-h light/dark cycle, lights on at 7:00 a.m.), and humidity (~50%). Standard mouse chow and tap water were supplied ad libitum. All behavioral experiments were performed in the light period. Handling was done daily at the same time.
Nine-month-old mice (three animals per group) were euthanized via cervical dislocation. […] To quantify the level of Aβ in the mice, we used a sandwich ELISA Kit (Innotest Amyloid-[…]) from Innogenetics (Gent, Belgium), following the instructions of the manufacturer. The absorbance values were measured at 450 nm on a 96-well plate reader (NOVOstar OPTIMA, BMG Labtech, Offenburg, Germany). […]
The results of spine density and immunohistochemistry experiments were calculated with one-way ANOVA followed by Fisher’s LSD post hoc tests. […] Data were analyzed with SPSS (IBM SPSS Statistics 24), and were expressed as the mean ± standard error of the mean (SEM). […]

[1] = test system: Pin1-WW domain (WW domain of Pin1); assay: ITC binding to Pin1-WW; conditions: 310 K, PBS pH 7.4, Pin1-WW 81.4 μM in cell, P33 in syringe
Description: Synthesis of acetyl-Fe65-WW, acetyl-Pin1-WW, and the control PPPPP (structures involved in Figure 2) was carried out on a Rink Amide AM (0.3 mmol∙g^−1) resin using Fmoc chemistry and activation with HATU in the presence of DIPEA. Cleavage was achieved by a treatment with TFA/H2O/triisopropylsilane/1,4-dithio-DL-threitol/phenol (90:5:3:1:1) at room temperature (RT). TFA was removed in vacuo, the peptides were then precipitated using cold, dry diethyl-ether, dissolved in ACN/H2O and lyophilized.
Isothermal titrations were performed using a Microcal VP-ITC (Malvern Instruments, Malvern, UK) microcalorimeter. Binding experiments were carried out in degassed phosphate-buffered saline (PBS) at pH 7.4. The concentrations of Fe65-WW and Pin1-WW were normalized for the peptide contents. In one titration experiment, 10-μL portions of the ligand-containing solution (P33 or PPPPP) were injected from a computer-controlled 300-μL microsyringe at intervals of 300 s into the solution of the WW domain (Fe65-WW or Pin1-WW), dissolved in the same buffer as for the ligand. The rev of the microsyringe was set to 307 rpm. […] Control experiments were performed by injecting P33 or PPPPP into the cell containing plain buffer without the WW domain, with results achieved via subtracting the dilution heats from those measured in the presence of the WW domain.

SMILES: C[C@@H](N)C(=O)N1CCC[C@@H]1C(=O)N[C@H](C)C(=O)N1CCC[C@@H]1C(=O)N[C@H](CCC(=O)O)C(N)=O [P33] (HELM PEPTIDE1{[dA].[dP].[dA].[dP].[dE].[am]}$$$$V2.0)
- Fe65 level, effect of P33 (in words) (Fe65): could not be considerably changed by the treatment with P33
- binding to Pin1-WW (in words) [1]: no considerable binding; also recorded: no detectable binding to the Pin1-WW could be observed
